The values below come from patent US20150166523A1, “BRANCHED CHAIN ALKYL HETEROAROMATIC RING DERIVATIVE” (TAISHO PHARMACEUTICAL CO., LTD., priority 2012, published 2015).

Experiment [1] deals with T1, human orexin-1 receptor (hOX1R) (Homo sapiens, UniProt O43613).
T1 construct: expressed in transfected cells; host or cells: Chinese hamster ovary (CHO) cells
T1 sequence (O43613 1-425): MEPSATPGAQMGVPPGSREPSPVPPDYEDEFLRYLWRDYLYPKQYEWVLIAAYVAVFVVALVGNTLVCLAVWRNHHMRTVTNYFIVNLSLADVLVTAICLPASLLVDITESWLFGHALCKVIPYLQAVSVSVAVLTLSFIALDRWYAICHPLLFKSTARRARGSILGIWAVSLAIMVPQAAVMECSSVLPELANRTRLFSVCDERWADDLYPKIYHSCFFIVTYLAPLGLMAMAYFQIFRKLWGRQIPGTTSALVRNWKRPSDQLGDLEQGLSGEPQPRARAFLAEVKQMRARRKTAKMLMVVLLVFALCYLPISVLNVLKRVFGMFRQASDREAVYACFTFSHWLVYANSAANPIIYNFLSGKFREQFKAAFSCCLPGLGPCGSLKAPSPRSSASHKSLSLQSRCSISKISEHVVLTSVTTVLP
Kind of experiment: Measurement of orexin antagonistic activity (intracellular Ca2+ fluorescence, FDSS) on hOX1R. The conditions noted are these: CHO cells forcibly expressing hOX1R; Fluo-4AM; ligand peptide (substituted human orexin-A) 300 pM; compound preincubated 30 minutes; read-out: IC50 Value OX1. It is filed as cell-based. As to the method: (§1) The antagonistic activities of the test compounds on human orexin-1 receptor (hOX1R) and orexin-2 receptor (hOX2R) were measured by modifying from the method described in literature (Toshikatsu Okumura et al., Biochemical and Biophysical Research Communications, 280, 976-981, 2001). Chinese hamster ovary (CHO) cells forcibly expressing the hOX1R and hOX2R were seeded into a 96 well Black clear bottom plate (Nunc) at 20,000 cells per well, which were cultured in Ham's F-12 medium containing 0.1 mM MEM non-essential amino acids, 0.5 mg/mL G418, 10% fetal bovine serum (all by Invitrogen) for 16 hours under the conditions of 37° C., 5% CO2. After removing the medium, 100 μL of 0.5 μM Fluo-4AM ester (Dojin) in an assay buffer (25 mM HEPES (Dojin), Hank's balanced salt solution (Invitrogen), 0.1% bovine serum albumin, 2.5 mM probenecid, 200 μg/mL Amaranth (all by Sigma-Aldrich), pH 7.4) was added and the cells were incubated for 60 minutes at 37° C., 5% CO2. After removing the assay buffer containing fluo-4AM ester, the test compound was dissolved in dimethyl sulfoxide to be 10 mM and diluted with the assay buffer, 150 μL, of which was added and incubated for 30 minutes.
(§2) The reaction was measured for the fluorescence intensity of each well every second for 3 minutes using Functional Drug Screening System (FDSS; Hamamatsu Photonics K.K.), and the antagonistic activity was determined using the maximum fluorescence intensity as the indicator of intracellular Ca2+ concentration.

For experiment [2], the target named is T2, orexin-2 receptor (hOX2R) (Homo sapiens, UniProt O43614).
T2 construct: expressed in transfected cells; host or cells: Chinese hamster ovary (CHO) cells
T2 sequence (O43614 1-444): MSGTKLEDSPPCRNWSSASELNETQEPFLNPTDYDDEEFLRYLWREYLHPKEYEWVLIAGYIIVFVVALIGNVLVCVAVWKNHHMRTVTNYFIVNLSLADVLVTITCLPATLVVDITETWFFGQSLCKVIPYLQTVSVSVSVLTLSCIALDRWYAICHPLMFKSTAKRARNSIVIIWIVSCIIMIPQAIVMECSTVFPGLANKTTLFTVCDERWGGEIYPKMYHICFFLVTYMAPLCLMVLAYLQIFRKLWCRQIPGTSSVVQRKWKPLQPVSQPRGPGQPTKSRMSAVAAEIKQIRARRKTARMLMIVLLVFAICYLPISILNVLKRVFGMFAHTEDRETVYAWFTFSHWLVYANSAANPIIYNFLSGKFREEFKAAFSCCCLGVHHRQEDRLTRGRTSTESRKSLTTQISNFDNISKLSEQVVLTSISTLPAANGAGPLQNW
Kind of experiment: Measurement of orexin antagonistic activity (intracellular Ca2+ fluorescence, FDSS) on hOX2R. It is filed as cell-based. Particulars: CHO cells forcibly expressing hOX2R; Fluo-4AM; ligand peptide (substituted human orexin-A) 3 nM; compound preincubated 30 minutes; read-out: IC50 Value OX2. As to the method: as §1, §2

As to `CCN(C(=O)c1cc(C)ccc1-n1nccn1)[C@@H](C)Cn1cc(-c2cccc(C)c2)nn1` [Example 97, N-Ethyl-5-methyl-N-{(2S)-1-[4-(3-methylphenyl)-1H-1,2,3-triazol-1-yl]propan-2-yl}-2-(2H-1,2,3-triazol-2-yl) benzamide], the IC50 was 2.4 nM in experiment [1] and 21.3 nM in experiment [2].
The corresponding values for `CCN(C(=O)c1cc(C)ccc1-c1ncccn1)[C@@H](C)Cc1noc(-c2ccc(F)cc2)n1` [Example 55, N-Ethyl-N-{(2S)-1-[5-(4-fluorophenyl)-1,2,4-oxadiazol-3-yl]propan-2-yl}-5-methyl-2-(pyrimidin-2-yl)benzamide] are 1.4 nM and 9.4 nM.
With `CCN(C(=O)c1cc(F)ccc1-n1nccn1)[C@@H](C)Cn1cc(-c2ccc(F)cn2)cn1` [Example 36, N-Ethyl-5-fluoro-N-{(2S)-1-[4-(5-fluoropyridin-2-yl)-1H-pyrazol-1-yl]propan-2-yl}-2-(2H-1,2,3-triazol-2-yl) benzamide], the IC50 in experiment [1] was 6.8 nM; in experiment [2], 214 nM.
The corresponding values for `CCN(C(=O)c1ccccc1-n1nccn1)[C@@H](C)Cn1ccc(-c2ccc(F)cn2)n1` [Example 18, N-Ethyl-N-{(2S)-1-[3-(5-fluoropyridin-2-yl)-1H-pyrazol-1-yl]propan-2-yl}-2-(2H-1,2,3-triazol-2-yl)benzamide] are 0.7 nM and 7.7 nM.
As for `CCN(C(=O)c1nc(C)ccc1-n1nccn1)[C@@H](C)Cn1cc(-c2ccc(F)cc2)cn1` [Example 26, N-Ethyl-N-{(2S)-1-[4-(4-fluorophenyl)-1H-pyrazol-1-yl]propan-2-yl}-6-methyl-3-(2H-1,2,3-triazol-2-yl)pyridine-2-carboxamide], the IC50 in experiment [1] was found to be 1.7 nM; in experiment [2], 55.9 nM.
On to `CCN(C(=O)c1cc(F)ccc1-c1ncccn1)[C@H](C)Cn1ccc(-c2ccc(F)cn2)n1` [Example 9, N-Ethyl-5-fluoro-N-[(2R)-1-[3-(5-fluoropyridin-2-yl)-1H-pyrazol-1-yl]propan-2-yl)-2-(pyrimidin-2-yl) benzamide], for which the 50% inhibitory concentration (IC50) was 988 nM in experiment [1] and 1420 nM in experiment [2].
For `Cc1ccc(-n2nccn2)c(C(=O)N(C)[C@@H](C)Cn2cc(-c3ccc(F)cc3)cn2)n1` [Example 28, N-{(2S)-1-[4-(4-Fluorophenyl)-1H-pyrazol-1-yl]propan-2-yl}-N,6-dimethyl-3-(2H-1,2,3-triazol-2-yl)pyridine-2-carboxamide], the results for the IC50 in experiment [1] and in experiment [2] were 18.6 nM and 89.3 nM, respectively.
The like results for `CCN(C(=O)c1cc(F)ccc1-n1nccn1)[C@@H](C)Cn1nnc(-c2ccc(F)cn2)n1` [Example 87, N-Ethyl-5-fluoro-N-{(2S)-1-[5-(5-fluoropyridin-2-yl)-2H-tetrazol-2-yl]propan-2-yl}-2-(2H-1,2,3-triazol-2-yl)benzamide] were, in that order, 9.8 nM and 283 nM.
Turning to `CCN(C(=O)c1cc(C)ccc1-n1nccn1)[C@@H](C)Cn1ccc(-c2ccc(F)cn2)n1` [Example 1, N-Ethyl-N-{(2S)-1-[3-(5-fluoropyridin-2-yl)-1H-pyrazol-1-yl]propan-2-yl}-5-methyl-2-(2H-1,2,3-triazol-2-yl)benzamide], the IC50 in experiment [1] was 1 nM; in experiment [2] it was 1.1 nM.
`CCN(C(=O)c1cc(C)ccc1-n1nccn1)[C@@H](C)Cn1cc(-c2cccc(F)c2)nn1` [Example 98, N-Ethyl-N-{(2S)-1-[4-(3-fluorophenyl)-1H-1,2,3-triazol-1-yl]propan-2-yl}-5-methyl-2-(2H-1,2,3-triazol-2-yl) benzamide]: the IC50 was 6.3 nM in experiment [1] and 9.8 nM in experiment [2].
On to `CCN(C(=O)c1cc(C)ccc1-n1nccn1)[C@@H](C)Cc1noc(-c2ccc(F)cn2)n1` [Example 47, N-Ethyl-N-{(2S)-1-[5-(5-fluoropyridin-2-yl)-1,2,4-oxadiazol-3-yl]propan-2-yl}-5-methyl-2-(2H-1,2,3-triazol-2-yl) benzamide], for which the concentration for half-maximal inhibition (IC50) in experiment [1] was found to be 0.8 nM; in experiment [2], 9.5 nM.
The corresponding values for `COCCN(C(=O)c1cc(C)ccc1-n1nccn1)[C@@H](C)Cn1cc(-c2ccc(F)cc2)nn1` [Example 72, N-{(2S)-1-[4-(4-Fluorophenyl)-1H-1,2,3-triazol-1-yl]propan-2-yl}-N-(2-methoxyethyl)-5-methyl-2-(2H-1,2,3-triazol-2-yl)benzamide] are 102 nM and 401 nM.
As to `Cc1ccc(-n2nccn2)c(C(=O)N(CCO)[C@@H](C)Cn2nnc(-c3ccc(F)cc3)n2)c1` [Example 64, N-{(2S)-1-[5-(4-Fluorophenyl)-2H-tetrazol-2-yl]propan-2-yl}-N-(2-hydroxyethyl)-5-methyl-2-(2H-1,2,3-triazol-2-yl)benzamide], the half-maximal inhibitory concentration (IC50) in experiment [1] is 1 nM; in experiment [2], 47.9 nM.
On to `CCN(C(=O)c1cc(F)ccc1-n1nccn1)[C@@H](C)Cn1cc(-c2ccc(F)cc2)nn1` [Example 84, N-Ethyl-5-fluoro-N-{(2S)-1-[4-(4-fluorophenyl)-1H-1,2,3-triazol-1-yl]propan-2-yl}-2-(2H-1,2,3-triazol-2-yl)benzamide], for which the half-inhibitory concentration (IC50) in experiment [1] came out at 3.1 nM; in experiment [2], 51.4 nM.
Turning to `Cc1ccc(-n2nccn2)c(C(=O)N(CCN(C)C)[C@@H](C)Cn2cc(-c3ccc(F)cc3)nn2)c1` [Example 89, N-[2-(Dimethylamino)ethyl]-N-{(2S)-1-[4-(4-fluorophenyl)-1H-1,2,3-triazol-1-yl]propan-2-yl}-5-methyl-2-(2H-1,2,3-triazol-2-yl)benzamide], the IC50 came to 229 nM in experiment [1] and 6930 nM in experiment [2].
Take `CCN(C(=O)c1cc(C)ccc1-n1nccn1)[C@@H](C)Cn1cc(-c2cccc(OC)c2)nn1` [Example 101, N-Ethyl-N-{(2S)-1-[4-(3-methoxyphenyl)-1H-1,2,3-triazol-1-yl]propan-2-yl}-5-methyl-2-(2H-1,2,3-triazol-2-yl)benzamide]: the figures for the IC50 in experiment [1] and in experiment [2] were 0.9 nM and 1.5 nM, respectively.
The like results for `CCN(C(=O)c1nc(C)ccc1-c1ncccn1)[C@@H](C)Cn1ccc(-c2ccc(F)cc2)n1` [Example 15, N-Ethyl-N-[(2S)-1-[3-(4-fluorophenyl)-1H-pyrazol-1-yl]propan-2-yl}-6-methyl-3-(pyrimidin-2-yl)pyridine-2-carboxamide] were, in that order, 1.2 nM and 18 nM.
Take `CCN(C(=O)c1cc(F)ccc1-c1ncccn1)[C@@H](C)Cn1cc(-c2ccc(F)c(F)c2)cn1` [Example 31, N-{(2S)-1-[4-(3,4-Difluorophenyl)-1H-pyrazol-1-yl]propan-2-yl}-N-ethyl-5-fluoro-2-(pyrimidin-2-yl)benzamide]: the figures for the IC50 in experiment [1] and in experiment [2] were 1 nM and 10.2 nM, respectively.
Regarding `CCN(C(=O)c1cc(C)ccc1-n1nccn1)[C@@H](C)Cn1cc(-c2ccc(O)cc2)nn1` [Example 100, N-Ethyl-N-{(2S)-1-[4-(4-hydroxyphenyl)-1H-1,2,3-triazol-1-yl]propan-2-yl}-5-methyl-2-(2H-1,2,3-triazol-2-yl)benzamide], the IC50 in experiment [1] is 10.4 nM; in experiment [2], 774 nM.
Turning to `CCN(C(=O)c1cc(C)ccc1-n1nccn1)[C@@H](C)Cn1cc(-c2ccccc2)nn1` [Example 95, N-Ethyl-5-methyl-N-[(2S)-1-(4-phenyl-1H-1,2,3-triazol-1-yl)propan-2-yl]-2-(2H-1,2,3-triazol-2-yl)benzamide], the 50% inhibitory concentration (IC50) in experiment [1] turned out to be 0.6 nM; in experiment [2], 17.7 nM.
